Reference: patent US12018008B2, “Crystalline forms of an androgen receptor modulator” (Aragon Pharmaceuticals, Inc., priority 2012, dated 2024)

How the values were obtained:
[1] = Thermodynamic aqueous solubility; format: physicochemical; conditions: water, equilibrated at 25° C. for 24 hours, HPLC
Description: Aqueous solubility was determined by suspending sufficient compound in water to give a maximum final concentration of ≥20 mg·ml^−1 of the parent free-form of the compound. The suspension was equilibrated at 25° C. for 24 hours then the pH was measured. The suspension was then filtered through a glass fibre C filter into a 96 well plate unless stated otherwise. The filtrate was then diluted by a factor of 101. Quantitation was by HPLC with reference to a standard solution of approximately 0.1 mg·ml^−1 in DMSO. Different volumes of the standard, diluted and undiluted sample solutions were injected. The solubility was calculated using the peak areas determined by integration of the peak found at the same retention time as the principal peak in the standard injection.
Analysis was performed on an Agilent HP1100 series system equipped with a diode array detector and using ChemStation software vB.02.01-SR1.

[2] = Storage stability at 40° C. and 75% RH (XRPD); format: physicochemical; conditions: a week
[3] = Forcing drying conditions (60° C. at <20 mm Hg); format: physicochemical; conditions: 60° C. at <20 mm Hg for 8 days
[4] = Storage stability at 25° C. and 92% RH (XRPD); format: physicochemical; conditions: for Solid form stability on storage: 92% RH/25° C., on glass slide, after a week
Description: A sample of Form E was laid on a glass slide then placed in a box maintained at 92% RH/25° C.

[5] = Gravimetric vapour sorption (GVS); format: physicochemical; conditions: for Solid form stability under the GVS conditions (XRPD after GVS): 25° C., 0-90% RH
Description: Sorption isotherms were obtained using a SMS DVS Intrinsic moisture sorption analyser, controlled by SMS Analysis Suite software. The sample temperature was maintained at 25° C. by the instrument controls. The humidity was controlled by mixing streams of dry and wet nitrogen, with a total flow rate of 200 ml min^−1. The relative humidity was measured by a calibrated Rotronic probe (dynamic range of 1.0-100% RH), located near the sample. The weight change, (mass relaxation) of the sample as a function of % RH was constantly monitored by the microbalance (accuracy ±0.005 mg). Typically 5-20 mg of sample was placed in a tared mesh stainless steel basket under ambient conditions. The sample was loaded and unloaded at 40% RH and 25° C. (typical room conditions). A moisture sorption isotherm was performed as outlined below (2 scans giving 1 complete cycle). The standard isotherm was performed at 25° C. at 10% RH intervals over a 0.5-90% RH range. [table] The sample was recovered after completion of the isotherm and re-analyzed by XRPD.

[6] = Stability under ambient conditions; format: physicochemical; conditions: within a month
[7] = molecular target: T1, T877A AR mutant (Homo sapiens, UniProt P10275, T878A); conditions: cited from earlier work
T1 sequence (P10275 1-920 T878A): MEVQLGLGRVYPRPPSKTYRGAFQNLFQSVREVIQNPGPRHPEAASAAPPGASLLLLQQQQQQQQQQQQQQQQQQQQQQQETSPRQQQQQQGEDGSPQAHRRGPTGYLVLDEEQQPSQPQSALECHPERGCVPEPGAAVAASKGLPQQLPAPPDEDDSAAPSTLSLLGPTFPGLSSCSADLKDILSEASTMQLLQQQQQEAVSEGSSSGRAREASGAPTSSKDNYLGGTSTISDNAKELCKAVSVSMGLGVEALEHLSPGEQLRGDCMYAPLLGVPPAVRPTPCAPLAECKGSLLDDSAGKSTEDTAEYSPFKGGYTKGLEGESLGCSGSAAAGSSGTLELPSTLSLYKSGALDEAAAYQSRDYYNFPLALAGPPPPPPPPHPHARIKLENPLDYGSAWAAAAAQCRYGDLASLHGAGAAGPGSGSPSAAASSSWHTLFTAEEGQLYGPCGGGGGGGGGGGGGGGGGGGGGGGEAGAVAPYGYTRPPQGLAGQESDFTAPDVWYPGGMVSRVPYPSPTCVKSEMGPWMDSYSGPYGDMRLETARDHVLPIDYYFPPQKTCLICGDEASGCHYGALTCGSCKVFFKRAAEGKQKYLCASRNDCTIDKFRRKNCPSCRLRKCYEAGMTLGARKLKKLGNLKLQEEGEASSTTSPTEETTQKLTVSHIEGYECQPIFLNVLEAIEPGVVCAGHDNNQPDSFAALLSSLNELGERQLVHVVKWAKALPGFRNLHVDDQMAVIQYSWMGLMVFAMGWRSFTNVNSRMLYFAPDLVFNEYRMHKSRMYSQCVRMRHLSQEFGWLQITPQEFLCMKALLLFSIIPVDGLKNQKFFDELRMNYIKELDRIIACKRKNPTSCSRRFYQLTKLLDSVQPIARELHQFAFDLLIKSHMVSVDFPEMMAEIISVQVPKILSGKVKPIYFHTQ

CNC(=O)c1ccc(N2C(=S)N(c3cnc(C#N)c(C(F)(F)F)c3)C(=O)C23CCC3)cc1F [Form A, 4-[7-(6-cyano-5-trifluoromethylpyridin-3-yl)-8-oxo-6-thioxo-5,7-diazaspiro[3.4]oct-5-yl]-2-fluoro-N-methylbenzamide]
Aqueous Solubility (mg/mL) [1]: about 0.01 mg/mL | Solid form stability on storage [2]: stable | Behaviour under forcing conditions [3]: lost ethanol, the XRPD pattern of the material stayed the same

CNC(=O)c1ccc(N2C(=S)N(c3cnc(C#N)c(C(F)(F)F)c3)C(=O)C23CCC3)cc1F [Form B, 4-[7-(6-cyano-5-trifluoromethylpyridin-3-yl)-8-oxo-6-thioxo-5,7-diazaspiro[3.4]oct-5-yl]-2-fluoro-N-methylbenzamide]
Aqueous Solubility (mg/mL) [1]: about 0.004 mg/mL | Solid form stability on storage [2]: stable | Solid form stability on storage (XRPD before and after) ([4]; 25° C. and 92% RH for 12 days): stable | Solid form stability under the GVS conditions (XRPD after GVS) [5]: stable | Hygroscopicity ([5]; GVS at 25° C.): not hygroscopic | Uptake of water ([5]; GVS isotherm at 25° C., at 90% RH): less than 0.2%

CNC(=O)c1ccc(N2C(=S)N(c3cnc(C#N)c(C(F)(F)F)c3)C(=O)C23CCC3)cc1F [Form C, 4-[7-(6-cyano-5-trifluoromethylpyridin-3-yl)-8-oxo-6-thioxo-5,7-diazaspiro[3.4]oct-5-yl]-2-fluoro-N-methylbenzamide]
Solid form stability on storage [2]: stable

CNC(=O)c1ccc(N2C(=S)N(c3cnc(C#N)c(C(F)(F)F)c3)C(=O)C23CCC3)cc1F [Form D, 4-[7-(6-cyano-5-trifluoromethylpyridin-3-yl)-8-oxo-6-thioxo-5,7-diazaspiro[3.4]oct-5-yl]-2-fluoro-N-methylbenzamide]
Solid form stability on storage [2]: stable

CNC(=O)c1ccc(N2C(=S)N(c3cnc(C#N)c(C(F)(F)F)c3)C(=O)C23CCC3)cc1F [Form E, 4-[7-(6-cyano-5-trifluoromethylpyridin-3-yl)-8-oxo-6-thioxo-5,7-diazaspiro[3.4]oct-5-yl]-2-fluoro-N-methylbenzamide]
Solid form stability on storage [2]: transformed to Form A | Solid form stability on storage [4]: transformed to Form A and a small amount of Form B | Solid form stability under the GVS conditions (XRPD after GVS) [5]: transformed to Form A

CNC(=O)c1ccc(N2C(=S)N(c3cnc(C#N)c(C(F)(F)F)c3)C(=O)C23CCC3)cc1F [Form F, 4-[7-(6-cyano-5-trifluoromethylpyridin-3-yl)-8-oxo-6-thioxo-5,7-diazaspiro[3.4]oct-5-yl]-2-fluoro-N-methylbenzamide]
Solid form stability on storage [2]: transformed to Form A | Solid form stability under ambient conditions [6]: transformed to Form A

CNC(=O)c1ccc(N2C(=S)N(c3cnc(C#N)c(C(F)(F)F)c3)C(=O)C23CCC3)cc1F [Form G, 4-[7-(6-cyano-5-trifluoromethylpyridin-3-yl)-8-oxo-6-thioxo-5,7-diazaspiro[3.4]oct-5-yl]-2-fluoro-N-methylbenzamide]
Solid form stability on storage [2]: stable

CNC(=O)c1ccc(N2C(=S)N(c3cnc(C#N)c(C(F)(F)F)c3)C(=O)C23CCC3)cc1F [Form H, 4-[7-(6-cyano-5-trifluoromethylpyridin-3-yl)-8-oxo-6-thioxo-5,7-diazaspiro[3.4]oct-5-yl]-2-fluoro-N-methylbenzamide]
Solid form stability on storage [2]: stable

CNC(=O)c1ccc(N2C(=S)N(c3cnc(C#N)c(C(F)(F)F)c3)C(=O)C23CCC3)cc1F [Form I, 4-[7-(6-cyano-5-trifluoromethylpyridin-3-yl)-8-oxo-6-thioxo-5,7-diazaspiro[3.4]oct-5-yl]-2-fluoro-N-methylbenzamide]
Solid form stability on storage [4]: transformed to Form B

CNC(=O)c1ccc(N2C(=S)N(c3cnc(C#N)c(C(F)(F)F)c3)C(=O)C23CCC3)cc1F [Form J, 4-[7-(6-cyano-5-trifluoromethylpyridin-3-yl)-8-oxo-6-thioxo-5,7-diazaspiro[3.4]oct-5-yl]-2-fluoro-N-methylbenzamide]
Solid form stability on storage [4]: transformed to Form B

CC(C)(O)C(=O)Nc1ccc([N+](=O)[O-])c(C(F)(F)F)c1 [hydroxyflutamide]
Activity in T877A AR mutant [7]: act as AR agonists
